A short description of data set [1]: 28-day pharmacodynamic and liver toxicity study in C57BL/6 mice. Format: in vivo, mouse. The note with it: 28 days; for body weight: 15 or 30 mg/kg IP daily; for signs of physiological or hepatic toxicity: 15 or 30 mg/kg daily IP. An excerpt: Animals: C57BL/6 male mice (−3 months) were purchased from Charles River, UK. All animals were housed and tested following European (Directive on the Protection of Animals used for Scientific Purposes, 2010/63/EU) and UK Home Office regulations. Experiments were approved by the University Ethics Board and carried out in accordance with the Animal (Scientific Procedures) Act 1986 and following ARRIVE guidelines.
Treatments: Mice were randomized in to the five experimental groups: Control (n=9); MD17, 15 mg/kg (n=6); MD17, 30 mg/kg (n=6); MD20, 15 mg/kg (n=6); and MD20, 30 mg/kg (n=6). MD17 and MD20 compounds were administered to mice once daily via intraperitoneal (IP) injection for a period of 28 consecutive days at a dose of either 15 or 30 mg/kg. Peptides were kept in −20 °C and dissolved in sterile phosphate buffered saline (PBS) freshly every day before the injection. Control mice received a daily PBS injection. Three mice died during the study, and the final number of animals in each group was: Control (n=9); MD17, 15 mg/kg (n=5); MD17, 30 mg/kg, (n=6); MD20, 15 mg/kg (n=5); and MD20, 30 mg/kg (n=5). All mice had ad libitum access to food and water and were kept in a 12 h light/dark cycle.
Bodyweights and body mass composition: body weights were recorded during the study and fat and lean mass composition was analysed using an EchoMRI scanner (EchoMedical Systems, Houston, TX, U.S.A.).
Fasted glucose: All animals were 5 h-fasted and tail glucose measured using an AlphaTRAK 2 glucose strips and glucometer (Abbot, UK).
Serum assays: Trunk-derived blood was collected from 5 h-fasted mice in to serum separator microtubes and kept at −80 °C. Serum was used for insulin (#EZRMI-13K, Merck), leptin (#90030, Crystal Chem), free fatty acids (FFA; #mak044, Sigma-Aldrich), alanine and aspartate aminotransferases (ALT and AST; #ab105134 and #ab105135, Abcam) analyses.
Statistical analyses: Data were expressed as means±SEM and were analysed using one- or two-way ANOVA with Bonferroni post hoc tests, as appropriate. GraphPad Prism (V8, GraphPad Software, Inc., San Diego, California, USA) was used for analyses. P-values <0.05 were considered significant.

For data set [2], the target named is T1, interaction between PTP1B and the SH3-2 domain of NCK1 (Homo sapiens, UniProt P16333).
T1 construct: FLAG-PTP1B from HEK293 lysate
Put plainly: GST pull-down / co-immunoprecipitation screen for disruption of the PTP1B / NCK1 SH3-2 interaction. Format: binding. The note with it: peptide 1 mM; for disruption of the interaction between PTP1B and the SH3-2 domain of NCK1: GST-SH3-2 and FLAG-PTP1B. The protocol: FIG. 4A depicts an immunoblot showing that certain peptides prevent co-immunoprecipitation of FLAG-PTP1B and GST-tagged SH3-2 domain of NCK1 (“SH3”). GST was fused to full-length NCK1 (“Nck1”), all SH3 domains of NCK1 (“SH3”), the NCK1 SH2 domain (“SH2”), the NCK1 SH3-1 domain (“SH3 1”), the NCK1 SH3-2 domain (“SH3 2”), and the NCK1 SH3-3 domain (“SH3 3”). GST alone was used as a negative control (“GST”). FLAG-PTP1B was incubated with the indicated bead-bound GST-fusion protein, and FLAG-PTP1B was detected in the IP eluate by western blotting. The outlined region in column “SH3-2” identifies the PTP1B band. For GST-SH3-2 and FLAG-PTP1B, the mixture was further incubated with one of peptides A through K, (1 mM). FIG. 4B depicts an input control for the immunoblot. FIG. 4C depicts a Ponceau stain for the immunoblot, which was used to measure total protein.
Construction and Purification of GST constructs: Human NCK1 (NM_006153) human cDNA was obtained (Origene, MD, USA). GST fusion constructs (GST-only control, GST full length NCK1, GST all SH3 domains of NCK1, GST SH2 domain of NCK1, GST SH3-1, GST SH3-2 and GST SH3-3) were amplified, double digested (EcoRI and XhoI, New England Biolabs), ligated in to pGEX-6P-2 vector (#M2200S, New England Biolabs; #GE28-9546-50, Merck), transformed in to DH5α E. coli cells (#C2987H, NEB) and purified using a plasmid preparation kit according to manufacturer's instructions (#T1010, New England Biolabs). GST-constructs were transformed in to BL21-Gold E. coli cells (#230134, Agilent), and GST-fusion proteins were produced, extracted, and bound to GST beads as described in Example 1. Beads were washed three times with STE buffer and stored at 4 °C.
GST pull-down experiments for compounds screening against FLAG PTP1B interaction with SH3-2 domain of NCK1. GST-bound agarose beads of SH3-2 domain were incubated overnight at 4 °C with lysates from HEK293 cells overexpressing FLAG PTP1B protein, to gether with various peptide compounds (1 mM) to screen for inhibition of PTP1B-NCK1 binding. Following overnight incubation, agarose beads were three times washed in STE buffer, and proteins were eluted in SDS-Laemmli buffer by heating at 95 °C for 10 min. Samples were spun at 12,000 rpm for 2 min, and the liquid fraction was transferred in to 1 mL Eppendorf tubes. Proteins were separated and detected by chemiluminescent Western Blotting (PEQLAB, Germany) using anti-FLAG HRP antibody (#A8592, Sigma).

As for Ac-PPPEHIPPPPRPPKR-NH2 [MD17], in data set [1], the body weight entry is recorded as “No statistically significant differences” and the “signs of physiological or hepatic toxicity” value was “did not induce any obvious signs of physiological or hepatic toxicity”. For the same substance, in data set [2], the “binding to full-length NCK1 (concluded from pull-down)” value is “bind to full-length NCK1, specifically, at SH3-2 domain”; the “disruption of the interaction between PTP1B and the SH3-2 domain of NCK1” value is “disrupt the interaction between PTP1B and the SH3-2 domain of NCK1”.
Ac-PRPPKR-NH2 [MD20, Ac-PRPPKR-NH2]: in data set [1] (30 mg/kg IP daily, vs control), the “% change in fat mass” value is “decreased” and the “percentage change in body weight pre- versus post-treatment” value is reported as “significant decrease in % change”. For the same substance, in data set [1], the body weight entry is given as “No statistically significant differences” and the “signs of physiological or hepatic toxicity” value is “did not induce any obvious signs of physiological or hepatic toxicity”. For the same substance, in data set [2], the “binding to full-length NCK1 (concluded from pull-down)” value was “bind to full-length NCK1, specifically, at SH3-2 domain”; the “disruption of the interaction between PTP1B and the SH3-2 domain of NCK1” value is “disrupt the interaction between PTP1B and the SH3-2 domain of NCK1”.

These data come from patent publication US20260365696A1, “INHIBITORS OF PTP1B / NCK1 INTERACTION AND METHODS OF MAKING AND USING SAME” (Radella Pharmaceuticals LLC, priority 2023, published 2026).
